Data taken from ChEMBL document CHEMBL3352358, “Discovery of 2-(cyclohexylmethylamino)pyrimidines as a new class of reversible valosine containing protein inhibitors” (J Med Chem, 2014).
pIC50: −log10 of the molar value.

Key:
[1] = target: Transitional endoplasmic reticulum ATPase (Homo sapiens, UniProt P55072); experiment: biochemical; type: cell-based
Description: Inhibition of human full length VCP (2 to 806 residues) expressed in High5 insect cells assessed as reduction in ATPase activity by measuring ADP formation by NADH coupled assay

[2] = Inhibition of cell proliferation of human HCT116 cells after 72 hrs by thermostable firefly luciferase based assay; type: functional, HCT-116; conditions: for pIC50: Homo sapiens, HCT-116, 72 h, read-out: IC50

Sequence of Transitional endoplasmic reticulum ATPase (P55072 whole entry): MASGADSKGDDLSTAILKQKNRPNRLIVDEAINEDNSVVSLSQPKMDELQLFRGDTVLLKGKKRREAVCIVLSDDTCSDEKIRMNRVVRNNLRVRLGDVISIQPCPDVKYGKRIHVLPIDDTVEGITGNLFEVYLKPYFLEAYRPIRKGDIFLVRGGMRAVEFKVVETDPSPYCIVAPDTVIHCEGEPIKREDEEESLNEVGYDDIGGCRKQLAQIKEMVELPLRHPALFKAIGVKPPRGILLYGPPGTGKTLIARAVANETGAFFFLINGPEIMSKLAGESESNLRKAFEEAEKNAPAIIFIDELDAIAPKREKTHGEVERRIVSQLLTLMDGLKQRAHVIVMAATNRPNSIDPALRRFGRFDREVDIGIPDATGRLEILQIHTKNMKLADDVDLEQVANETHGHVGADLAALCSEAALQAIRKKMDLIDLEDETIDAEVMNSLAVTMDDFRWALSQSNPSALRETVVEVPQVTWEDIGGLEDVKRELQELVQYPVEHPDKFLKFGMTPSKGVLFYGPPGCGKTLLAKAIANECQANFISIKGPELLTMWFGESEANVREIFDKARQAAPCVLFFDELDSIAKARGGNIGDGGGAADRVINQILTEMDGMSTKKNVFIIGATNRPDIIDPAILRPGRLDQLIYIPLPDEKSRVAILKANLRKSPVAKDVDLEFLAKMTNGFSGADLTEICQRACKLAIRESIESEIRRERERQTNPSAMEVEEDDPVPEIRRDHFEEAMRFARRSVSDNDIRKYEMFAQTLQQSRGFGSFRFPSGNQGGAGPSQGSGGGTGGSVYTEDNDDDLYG

| Compound | pIC50 [1] | pIC50 [2] | IC50 ([2]; hct-116) |
| --- | --- | --- | --- |
| Cc1cc(-c2ccccc2)nc(SCc2ccc(C(=O)O)cc2)n1 | 5.32 | – | – |
| Cc1cc(-c2ccccc2)nc(SCc2ccc(C(=O)NS(=O)(=O)C(F)(F)F)cc2)n1 | 4.67 | – | – |
| Cc1cc(-c2ccccc2)nc(SCc2ccccc2)n1 | < 4.43 | – | – |
| Cc1cc(-c2ccccc2)nc(SCCc2ccc(C(=O)O)cc2)n1 | 4.69 | – | – |
| Cc1cc(-c2ccccc2)nc(Sc2ccc(C(=O)O)cc2)n1 | < 4.43 | – | – |
| Cc1cc(-c2ccccc2)nc(SCCC(=O)O)n1 | < 4.43 | – | – |
| Cc1cc(-c2ccccc2)nc(S(=O)(=O)Cc2ccc(C(=O)O)cc2)n1 | < 4.43 | – | – |
| Cc1cc(-c2ccccc2)nc(NCc2ccc(C(=O)O)cc2)n1 | 4.81 | – | – |
| Cc1cc(-c2ccccc2)nc(NCc2cccc(C(=O)O)c2)n1 | < 4.43 | – | – |
| Cc1cc(-c2ccccc2)nc(NC[C@H]2CC[C@H](C(=O)O)CC2)n1 | 5.59 | – | – |
| O=C(O)[C@H]1CC[C@H](CNc2nccc(-c3ccccc3)n2)CC1 | 5.06 | – | – |
| Cc1cc(-c2ccccc2C)nc(NC[C@H]2CC[C@H](C(=O)O)CC2)n1 | < 4.43 | – | – |
| COc1ccccc1-c1cc(C)nc(NC[C@H]2CC[C@H](C(=O)O)CC2)n1 | < 4.43 | – | – |
| Cc1cccc(-c2cc(C)nc(NC[C@H]3CC[C@H](C(=O)O)CC3)n2)c1 | 4.94 | – | – |
| Cc1cc(-c2cccc(Cl)c2)nc(NC[C@H]2CC[C@H](C(=O)O)CC2)n1 | 5.32 | – | – |
| COc1cccc(-c2cc(C)nc(NC[C@H]3CC[C@H](C(=O)O)CC3)n2)c1 | < 4.43 | – | – |
| Cc1ccc(-c2cc(C)nc(NC[C@H]3CC[C@H](C(=O)O)CC3)n2)cc1 | 5.57 | – | – |
| Cc1cc(-c2ccc(Cl)cc2)nc(NC[C@H]2CC[C@H](C(=O)O)CC2)n1 | 5.59 | – | – |
| Cc1cc(-c2ccc(F)cc2)nc(NC[C@H]2CC[C@H](C(=O)O)CC2)n1 | 5.08 | – | – |
| COc1ccc(-c2cc(C)nc(NC[C@H]3CC[C@H](C(=O)O)CC3)n2)cc1 | < 4.43 | – | – |
| O=C(O)[C@H]1CC[C@H](CNc2nc(-c3ccccc3)cc(-c3ccccc3)n2)CC1 | 6.52 | – | – |

| Compound | pIC50 [1] | pIC50 [2] | IC50 ([2]; hct-116) |
| --- | --- | --- | --- |
| Cc1ccccc1-c1cc(-c2ccccc2)nc(NC[C@H]2CC[C@H](C(=O)O)CC2)n1 | 6.17 | – | – |
| O=C(O)[C@H]1CC[C@H](CNc2nc(-c3ccccc3)cc(-c3ccccc3F)n2)CC1 | 6.85 | – | – |
| O=C(O)[C@H]1CC[C@H](CNc2nc(-c3ccccc3)cc(-c3ccccc3Cl)n2)CC1 | 6.15 | – | – |
| COc1ccccc1-c1cc(-c2ccccc2)nc(NC[C@H]2CC[C@H](C(=O)O)CC2)n1 | 5.52 | – | – |
| Cc1cccc(-c2cc(-c3ccccc3)nc(NC[C@H]3CC[C@H](C(=O)O)CC3)n2)c1 | 6.24 | – | – |
| O=C(O)[C@H]1CC[C@H](CNc2nc(-c3ccccc3)cc(-c3cccc(F)c3)n2)CC1 | 6.26 | – | – |
| O=C(O)[C@H]1CC[C@H](CNc2nc(-c3ccccc3)cc(-c3cccc(Cl)c3)n2)CC1 | 6.32 | – | – |
| COc1cccc(-c2cc(-c3ccccc3)nc(NC[C@H]3CC[C@H](C(=O)O)CC3)n2)c1 | 6.27 | – | – |
| O=C(O)[C@H]1CC[C@H](CNc2nc(-c3ccccc3)cc(-c3cccc([N+](=O)[O-])c3)n2)CC1 | 6.70 | – | – |
| [N-]=[N+]=Nc1cccc(-c2cc(-c3ccccc3)nc(NC[C@H]3CC[C@H](C(=O)O)CC3)n2)c1 | 6.06 | – | – |
| COc1ccc(-c2cc(-c3ccccc3)nc(NC[C@H]3CC[C@H](C(=O)O)CC3)n2)cc1 | 6.04 | – | – |
| Nc1ccc(-c2cc(-c3ccccc3)nc(NC[C@H]3CC[C@H](C(=O)O)CC3)n2)cc1[N+](=O)[O-] | 7.22 | – | – |
| O=C(O)[C@H]1CC[C@H](CNc2nc(-c3ccccc3)cc(-c3ccc4[nH]ccc4c3)n2)CC1 | 6.82 | – | – |
| O=C(O)[C@H]1CC[C@H](CNc2nc(-c3ccccc3)cc(-c3ccco3)n2)CC1 | 6.24 | – | – |
| O=C(O)[C@H]1CC[C@H](CNc2nc(-c3ccccc3)cc(-c3cccnc3)n2)CC1 | 5.92 | – | – |
| O=C(O)[C@H]1CC[C@H](CNc2nc(-c3ccccc3)cc(-c3ccncc3)n2)CC1 | 5.78 | – | – |
| O=C(O)[C@H]1CC[C@H](CNc2nc(-c3ccccc3)cc(-c3ccoc3)n2)CC1 | 5.66 | – | – |
| O=C(O)[C@H]1CC[C@H](CNc2nc(Nc3ccccc3)cc(-c3ccccc3)n2)CC1 | 7.44 | – | – |
| O=C(O)[C@H]1CC[C@H](CNc2nc(NC3CCCCC3)cc(-c3ccccc3)n2)CC1 | 5.37 | – | – |
| O=C(O)[C@H]1CC[C@H](CNc2nc(-c3ccccc3)cc(N3CCOCC3)n2)CC1 | < 5.00 | – | – |
| COC(=O)[C@H]1CC[C@H](CNc2nc(NCc3ccccc3)cc(-c3ccccc3)n2)CC1 | – | – | Not Active |

More lines, main results first:

| pIC50 [1] | Compound | pIC50 [2] | IC50 ([2]; hct-116) |
| --- | --- | --- | --- |
| 6.83 | COc1cccc(-c2cc(NCc3ccccc3)nc(NC[C@H]3CC[C@H](C(N)=O)CC3)n2)c1 | 5.18 | – |
| 6.94 | CS(=O)(=O)c1cccc(-c2cc(-c3ccccc3)nc(NC[C@H]3CC[C@H](C(=O)O)CC3)n2)c1 | – | – |
| 6.24 | Cc1ccc(-c2cc(-c3ccccc3)nc(NC[C@H]3CC[C@H](C(=O)O)CC3)n2)cc1 | – | – |
| 6.13 | O=C(O)[C@H]1CC[C@H](CNc2nc(-c3ccccc3)cc(-c3ccc(F)cc3)n2)CC1 | – | – |
| 6.66 | O=C(O)[C@H]1CC[C@H](CNc2nc(-c3ccccc3)cc(-c3ccc(Cl)cc3)n2)CC1 | – | – |
| 5.96 | CS(=O)(=O)c1ccc(-c2cc(-c3ccccc3)nc(NC[C@H]3CC[C@H](C(=O)O)CC3)n2)cc1 | – | – |
| 5.66 | O=C(O)[C@H]1CC[C@H](CNc2nc(-c3ccccc3)cc(-c3ccc([N+](=O)[O-])cc3)n2)CC1 | – | – |
| 6.95 | Nc1ccc(-c2cc(-c3ccccc3)nc(NC[C@H]3CC[C@H](C(=O)O)CC3)n2)cc1 | – | – |
| 5.03 | Cc1ccccc1CNc1cc(-c2ccccc2)nc(NC[C@H]2CC[C@H](C(N)=O)CC2)n1 | – | – |
| 5.77 | NC(=O)[C@H]1CC[C@H](CNc2nc(NCc3ccccc3F)cc(-c3ccccc3)n2)CC1 | – | – |
| 5.16 | NC(=O)[C@H]1CC[C@H](CNc2nc(NCc3ccccc3Cl)cc(-c3ccccc3)n2)CC1 | – | – |
| 5.15 | NC(=O)[C@H]1CC[C@H](CNc2nc(NCc3ccccc3Br)cc(-c3ccccc3)n2)CC1 | – | – |
| 5.05 | COc1ccccc1CNc1cc(-c2ccccc2)nc(NC[C@H]2CC[C@H](C(N)=O)CC2)n1 | – | – |
| 5.77 | Cc1cccc(CNc2cc(-c3ccccc3)nc(NC[C@H]3CC[C@H](C(N)=O)CC3)n2)c1 | – | – |
| 6.32 | NC(=O)[C@H]1CC[C@H](CNc2nc(NCc3cccc(F)c3)cc(-c3ccccc3)n2)CC1 | – | – |
| 5.56 | NC(=O)[C@H]1CC[C@H](CNc2nc(NCc3cccc(Cl)c3)cc(-c3ccccc3)n2)CC1 | – | – |
| 5.25 | COc1cccc(CNc2cc(-c3ccccc3)nc(NC[C@H]3CC[C@H](C(N)=O)CC3)n2)c1 | – | – |
| 5.34 | NC(=O)[C@H]1CC[C@H](CNc2nc(NCc3cccc([N+](=O)[O-])c3)cc(-c3ccccc3)n2)CC1 | – | – |
| 5.12 | NC(=O)[C@H]1CC[C@H](CNc2nc(NCc3cccc(S(N)(=O)=O)c3)cc(-c3ccccc3)n2)CC1 | – | – |
| 5.66 | Cc1ccc(CNc2cc(-c3ccccc3)nc(NC[C@H]3CC[C@H](C(N)=O)CC3)n2)cc1 | – | – |
| 5.61 | NC(=O)[C@H]1CC[C@H](CNc2nc(NCc3ccc(F)cc3)cc(-c3ccccc3)n2)CC1 | – | – |
| 5.46 | NC(=O)[C@H]1CC[C@H](CNc2nc(NCc3ccc(Cl)cc3)cc(-c3ccccc3)n2)CC1 | – | – |

| pIC50 [1] | Compound | pIC50 [2] | IC50 ([2]; hct-116) |
| --- | --- | --- | --- |
| 5.30 | COc1ccc(CNc2cc(-c3ccccc3)nc(NC[C@H]3CC[C@H](C(N)=O)CC3)n2)cc1 | – | – |
| 5.29 | NC(=O)[C@H]1CC[C@H](CNc2nc(NCc3ccc(S(N)(=O)=O)cc3)cc(-c3ccccc3)n2)CC1 | – | – |
| < 5.00 | CS(=O)(=O)c1ccc(CNc2cc(-c3ccccc3)nc(NC[C@H]3CC[C@H](C(N)=O)CC3)n2)cc1 | – | – |
| 7.06 | CC(=O)c1cccc(-c2cc(NCc3ccccc3)nc(NC[C@H]3CC[C@H](C(N)=O)CC3)n2)c1 | 5.18 | – |
| 6.97 | NC(=O)[C@H]1CC[C@H](CNc2nc(NCc3ccccc3)cc(-c3cccc(O)c3)n2)CC1 | < 5.00 | – |
| 6.87 | NC(=O)[C@H]1CC[C@H](CNc2nc(NCc3ccccc3)cc(-c3cccc(CO)c3)n2)CC1 | < 5.00 | – |
| 6.74 | Cc1cccc(-c2cc(NCc3ccccc3)nc(NC[C@H]3CC[C@H](C(N)=O)CC3)n2)c1 | 5.38 | – |
| 6.63 | NC(=O)[C@H]1CC[C@H](CNc2nc(NCc3ccccc3)cc(-c3cccc(C(F)(F)F)c3)n2)CC1 | 5.10 | – |
| 7.23 | CC(=O)Nc1ccc(-c2cc(NCc3ccccc3)nc(NC[C@H]3CC[C@H](C(N)=O)CC3)n2)cc1 | 5.37 | – |
| 7.05 | NC(=O)[C@H]1CC[C@H](CNc2nc(NCc3ccccc3)cc(-c3ccc(CO)cc3)n2)CC1 | 5.10 | – |
| 6.99 | CC(=O)c1ccc(-c2cc(NCc3ccccc3)nc(NC[C@H]3CC[C@H](C(N)=O)CC3)n2)cc1 | < 5.00 | – |
| 6.97 | NC(=O)[C@H]1CC[C@H](CNc2nc(NCc3ccccc3)cc(-c3ccc(Cl)cc3)n2)CC1 | 5.14 | – |
| 6.65 | NC(=O)[C@H]1CC[C@H](CNc2nc(NCc3ccccc3)cc(-c3ccc(C(F)(F)F)cc3)n2)CC1 | 5.12 | – |
| 6.61 | CCOc1ccc(-c2cc(NCc3ccccc3)nc(NC[C@H]3CC[C@H](C(N)=O)CC3)n2)cc1 | 5.65 | – |
| 6.52 | NC(=O)[C@H]1CC[C@H](CNc2nc(NCc3ccccc3)cc(-c3ccc(F)cc3)n2)CC1 | < 5.00 | – |
| 7.21 | NC(=O)[C@H]1CC[C@H](CNc2nc(NCc3ccccc3)cc(-c3cc4ccccc4o3)n2)CC1 | 5.33 | – |
| 7.15 | NC(=O)[C@H]1CC[C@H](CNc2nc(NCc3ccccc3)cc(-c3ccc4[nH]ncc4c3)n2)CC1 | 5.24 | – |
| 7.13 | NC(=O)[C@H]1CC[C@H](CNc2nc(NCc3ccccc3)cc(-c3csc4ccccc34)n2)CC1 | 5.24 | – |
| 7.09 | NC(=O)[C@H]1CC[C@H](CNc2nc(NCc3ccccc3)cc(-c3ccc4[nH]ccc4c3)n2)CC1 | 5.25 | – |
| 6.96 | NC(=O)[C@H]1CC[C@H](CNc2nc(NCc3ccccc3)cc(-c3cccnc3)n2)CC1 | < 5.00 | – |
| 6.34 | NC(=O)[C@H]1CC[C@H](CNc2nc(NCc3ccccc3)cc(-c3ccsc3)n2)CC1 | 5.13 | – |
| 6.31 | NC(=O)[C@H]1CC[C@H](CNc2nc(NCc3ccccc3)cc(-c3ccoc3)n2)CC1 | 5.06 | – |
